# Results as given in ChEMBL document CHEMBL5614399, “Design and Assessment of First-Generation Heterobifunctional PPARα/STING Modulators” (ACS Med Chem Lett, 2024).
# The source made the active and inactive calls. The rule behind the calls is not given here.
# What was measured:
# [1] = tested on: 661W; test: Cytoprotective activity against 4HNE-induced mouse 661W cells assessed as reduction in ROS level at 0.5 uM preincubated for 2 hrs followed by 4-HNE addition and measured after 24 hrs in presence of A229 by CM-H2DCFDA staining based fluorescence analysis; assay type: functional, cell-based; details: time 26.0 hrs
# [2] = tested on: 661W; test: Cytoprotective activity against 4HNE-induced mouse 661W cells assessed as reduction in ROS level at 1 uM preincubated for 2 hrs followed by 4-HNE addition and measured after 24 hrs in presence of A229 by CM-H2DCFDA staining based fluorescence analysis; assay type: functional, cell-based; details: time 26.0 hrs
smiles,measurement,setting,value
O=C(Nc1ccc(O)c(NS(=O)(=O)c2ccc(F)cc2)c1)c1ccc(-c2ccccc2)cc1,Activity,[1],Active
same,Activity,[2],Active
